Measured values: patent US20240238218A1, “[…] A […] ACTIVE COMPOUND AND METHOD OF PREPARATION THEREOF” (GW Research Limited, priority 2021, published 2024)

Tests used:
DBA/2 mice = assay: DBA/2 mouse audiogenic seizure test; format: in vivo; details: for Clonic convulsion, Latency (s) Median / Tonic extension, Latency (s) Median / Wild running, Latency (s) Median: bell maximum 60 seconds; for Mice with a rectal temperature below 35.0° C / Tremor noted (number of mice): group of 10
Text: The DBA/2 audiogenic seizure test, which detects anticonvulsant activity, follows that described by Dürmüller et al. (NeuroReport, vol. 4, no. 6, pages 683-686, 1993).
60 male DBA/2 mice (3-4 weeks old) were included in the experiment (weight range 8-11 g at the beginning of the experiment). Animals were acclimatized to the test facility for 1 day after delivery and randomly housed in groups of 5 in macrolon cages on wood litter with free access to food and water.
Mice were individually transferred (at 3-5 minutes intervals) from the preparation room into an adjacent experimental room and body temperature was measured using a rectal thermometer. Immediately after, they were placed in a Plexiglas jar (Diameter=40 cm; Height=35 cm) mounted with an electric bell. Upon activating the bell, the occurrences and latencies to wild running fits, clonic and tonic seizures were measured. Deaths were also recorded. The bell was activated until a tonic seizure occured or for a maximum of 60 seconds.
The experiment included 6 groups (10 mice were studied per group). Experimenters were blinded to the treatment groups.
The test substance was evaluated at 4 doses, administered i.p. (10 mL/kg) 30 or 60 minutes before the test, and compared with a vehicle control group. Doses and pre-treatment times were based on previous pharmacokinetic data.
Test compound: Compound I dissolved in 5% ethanol, 10% Kolliphor HS15, 85% physiological saline.
Vehicle control: 5% ethanol, 10% Kolliphor HS15, 85% physiological saline.
Reference: Valproate (180 mg/kg), dissolved in 5% ethanol, 10% Kolliphor HS15, 85% physiological saline.
Quantitative data (latencies) with the test substance were analyzed by comparing treated groups with vehicle control using Kruskal-Wallis test followed by Dunn's multiple comparisons test. Quantitative data with the reference substance were analyzed using Mann-Whitney U test.
Quantal data (frequencies) were analyzed by comparing treated groups with vehicle control using Fisher's Exact Probability tests.

[1] = tested on: mouse model of generalised seizure (tonic hind limb extensor convulsions); assay: Maximal electroshock seizure threshold (MEST) test in the mouse
Method: The efficacy of the novel resorcinol according to the compound of Formula I was tested in a mouse model of generalised seizure, the maximal electroshock seizure threshold (MEST) test.
In the MEST test the ability of a drug to alter the seizure threshold current required to induce hind limb tonic extensor convulsions is measured according to an “up and down” method of shock titration (Kimball et al., 1957). An increase in seizure threshold is indicative of anti-convulsant effect.
The ability of a test compound to alter the stimulus intensity, expressed as current (mA), required to induce the presence of tonic hind limb extensor convulsions, is assessed in the MEST.
All animals were weighed at the beginning of the study and randomly assigned to treatment groups based on a mean distribution of body weight across groups.
The first animal within a treatment group was given a shock at the expected or estimated CC50 current. For subsequent animals, the current was lowered or raised depending on the convulsions outcome from the preceding animal, in intervals of 5 mA.
Data generated from each treatment group were used to calculate the CC50±SEM values for the treatment group.
Vehicle: (5% ethanol, 5% Kolliphor® EL, 90% Saline) was prepared as follows: 2 mL of ethanol, 2 mL of Kolliphor® EL were warmed to 60° C., in 36 mL of saline (1:1:18).
The test compound, described herein as Compound I, is as shown as Formula I. Test compound was administered at 1, 5, 20, 50, 100 and 200 mg/kg (i.p.) in a 1:2:17 ethanol:solutol:0.9% saline formulation.
The data for each treatment group were recorded as the number of +'s and 0's at each current level employed and this information is then used to calculate the CC50 value (current required for 50% of the animals to show seizure behaviour)±standard error.
Test compound effects were also calculated as percentage change in CC50 from the vehicle control group.
Significant difference between drug-treated animals and controls were assessed according to Litchfield and Wilcoxon (1949).

[2] = 20 mg/kg i.p., 30 min before the test
[3] = 50 mg/kg i.p., 30 min before the test
[4] = 100 mg/kg i.p., 60 min before the test
[5] = 100 mg/kg i.p., 60 min before the test, mice with rectal temperature below 35.0° C removed
[6] = 200 mg/kg i.p., 60 min before the test
[7] = 200 mg/kg i.p., 60 min before the test, mice with rectal temperature below 35.0° C removed
[8] = 20 mg/kg i.p., 30 min post dose
[9] = 50 mg/kg i.p., 30 min post dose
[10] = 100 mg/kg i.p., 60 min post dose
[11] = 200 mg/kg i.p., 60 min post dose

## C=C(C)[C@@H]1CC(O)C(C)=C[C@H]1c1c(O)cc(Br)cc1O (single isomer, unassigned) [Compound I]
DBA/2 mice; [2]
  Clonic convulsion, Latency, Compared with Vehicle (i.p.) %: +44%
  Clonic convulsion, Presence, %: 70%
  Clonic convulsion, Presence, Compared with Vehicle (i.p.) %: −30%
  Clonic convulsion, Presence, Total: 7/10
  Death, Presence, %: 20%
  Death, Presence, Compared with Vehicle (i.p.) %: −50%
  Death, Presence, Total: 2/10
  Tonic extension, Latency, Compared with Vehicle (i.p.) %: +461%
  Tonic extension, Presence, %: 40%
  Tonic extension, Presence, Compared with Vehicle (i.p.) %: −60%
  Tonic extension, Presence, Total: 4/10
  Wild running, Latency, Compared with Vehicle (i.p.) %: +55%
  Wild running, Presence, %: 80%
  Wild running, Presence, Compared with Vehicle (i.p.) %: −20%
  Wild running, Presence, Total: 8/10
  Clonic convulsion, Latency (s) Median: 9.5 s
  Tonic extension, Latency (s) Median: 60.0 s
  Wild running, Latency (s) Median: 5.1 s
DBA/2 mice; [3]
  Clonic convulsion, Latency, Compared with Vehicle (i.p.) %: +809%
  Clonic convulsion, Presence, %: 40%
  Clonic convulsion, Presence, Compared with Vehicle (i.p.) %: −60%
  Clonic convulsion, Presence, Total: 4/10
  Death, Presence, %: 0%
  Death, Presence, Compared with Vehicle (i.p.) %: −100%
  Death, Presence, Total: 0/10
  Tonic extension, Latency, Compared with Vehicle (i.p.) %: +461%
  Tonic extension, Presence, %: 0%
  Tonic extension, Presence, Compared with Vehicle (i.p.) %: −100%
  Tonic extension, Presence, Total: 0/10
  Wild running, Latency, Compared with Vehicle (i.p.) %: +924%
  Wild running, Presence, %: 50%
  Wild running, Presence, Compared with Vehicle (i.p.) %: −50%
  Wild running, Presence, Total: 5/10
  Clonic convulsion, Latency (s) Median: 60.0 s
  Tonic extension, Latency (s) Median: 60.0 s
  Wild running, Latency (s) Median: 33.8 s
DBA/2 mice; [4]
  Clonic convulsion, Latency, Compared with Vehicle (i.p.) %: +809%
  Clonic convulsion, Presence, Compared with Vehicle (i.p.) %: −100%
  Death, Presence, Compared with Vehicle (i.p.) %: −100%
  Tonic extension, Latency, Compared with Vehicle (i.p.) %: +461%
  Tonic extension, Presence, Compared with Vehicle (i.p.) %: −100%
  Wild running, Latency, Compared with Vehicle (i.p.) %: +1718%
  Wild running, Presence, Compared with Vehicle (i.p.) %: −100%
  Clonic convulsion, Latency (s) Median: 60.0 s
  Tonic extension, Latency (s) Median: 60.0 s
  Wild running, Latency (s) Median: 60.0 s
DBA/2 mice; [5]
  Clonic convulsion, Presence, %: 0%
  Clonic convulsion, Presence, Total: 0/6
  Death, Presence, %: 0%
  Death, Presence, Total: 0/6
  Tonic extension, Presence, %: 0%
  Tonic extension, Presence, Total: 0/6
  Wild running, Presence, %: 0%
  Wild running, Presence, Total: 0/6
DBA/2 mice; 100 mg/kg i.p.
  Mice with a rectal temperature below 35.0° C: Four mice
  Tremor noted (number of mice): 5 mice
DBA/2 mice; [6]
  Clonic convulsion, Latency, Compared with Vehicle (i.p.) %: +809%
  Clonic convulsion, Presence, Compared with Vehicle (i.p.) %: −80%
  Death, Presence, Compared with Vehicle (i.p.) %: −100%
  Tonic extension, Latency, Compared with Vehicle (i.p.) %: +461%
  Tonic extension, Presence, Compared with Vehicle (i.p.) %: −100%
  Wild running, Latency, Compared with Vehicle (i.p.) %: +1718%
  Wild running, Presence, Compared with Vehicle (i.p.) %: −80%
  Clonic convulsion, Latency (s) Median: 60.0 s
  Tonic extension, Latency (s) Median: 60.0 s
  Wild running, Latency (s) Median: 60.0 s
DBA/2 mice; [7]
  Clonic convulsion, Presence, %: 33%
  Clonic convulsion, Presence, Total: 2/6
  Death, Presence, %: 0%
  Death, Presence, Total: 0/6
  Tonic extension, Presence, %: 0%
  Tonic extension, Presence, Total: 0/6
  Wild running, Presence, %: 33%
  Wild running, Presence, Total: 2/6
DBA/2 mice; 200 mg/kg i.p.
  Mice with a rectal temperature below 35.0° C: Four mice
  Tremor noted (number of mice): 3 mice
DBA/2 mice; any doses (20, 50, 100, 200 mg/kg i.p.)
  Effect on the number of deaths: did not affect the number of deaths at any doses
[1]; 1 mg/kg i.p., 15 min post dose
  % change from vehicle (CC50): 32%
  CC50 +/− SEM: 31.3 ± 1.5 mA
[1]; 5 mg/kg i.p., 15 min post dose
  % change from vehicle (CC50): 45%
  CC50 +/− SEM: 34.2 ± 1.5 mA
[1]; [8]
  % change from vehicle (CC50): 202%
  CC50 +/− SEM: 71.5 ± 1.0 mA
[1]; [9]
  % change from vehicle (CC50): 650%
  CC50 +/− SEM: 177.5 ± 0.7 mA
[1]; [10]
  % change from vehicle (CC50): 1157%
  CC50 +/− SEM: 297.5 ± 0.7 mA
[1]; [11]
  % change from vehicle (CC50): >1168%
  CC50 +/− SEM: >300.0 mA
